Data taken from the supplement of paper PMC4862054.

Assays:
[1] = system: BT-474; experiment: normalised viability (% of control), CellTiter-Blue; higher = more viable cells (about 100 = DMSO control); conditions: 10000 nM; incubation time: 72 h
Procedure, shortened: (§1)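 Each entry is normalised viability at a single listed concentration within a series. It comes from breast cancer cell lines incubated 72 h with compound in 384-well plates, then measured with CellTiter-Blue fluorescence at 560/590 nm. Every plate was normalised between vehicle (100) and a positive kill control (0).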

[2] = system: BT-549; experiment: as above; conditions: 10000 nM; incubation time: 72 h
Procedure, shortened: as §1

[3] = system: CAL-120; experiment: as above; conditions: 10000 nM; incubation time: 72 h
Procedure, shortened: as §1

[4] = system: CAL-148; experiment: as above; conditions: 100 nM; incubation time: 72 h
Procedure, shortened: as §1

[5] = system: CAL-51; experiment: as above; conditions: 100 nM; incubation time: 72 h
Procedure, shortened: as §1

[6] = system: CAL-85-1; experiment: as above; conditions: 100 nM; incubation time: 72 h
Procedure, shortened: as §1

[7] = system: DU-4475; experiment: as above; conditions: 100 nM; incubation time: 72 h
Procedure, shortened: as §1

[8] = system: HCC1143; experiment: as above; conditions: 10000 nM; incubation time: 72 h
Procedure, shortened: as §1

[9] = system: HCC1599; experiment: as above; conditions: 10000 nM; incubation time: 72 h
Procedure, shortened: as §1

[10] = system: HCC1937; experiment: as above; conditions: 10000 nM; incubation time: 72 h
Procedure, shortened: as §1

[11] = system: HDQ-P1; experiment: as above; conditions: 100 nM; incubation time: 72 h
Procedure, shortened: as §1

[12] = system: Hs578T; experiment: as above; conditions: 10000 nM; incubation time: 72 h
Procedure, shortened: as §1

[13] = system: MDA-MB-231; experiment: as above; conditions: 10000 nM; incubation time: 72 h
Procedure, shortened: as §1

[14] = system: MDA-MB-436; experiment: as above; conditions: 10000 nM; incubation time: 72 h
Procedure, shortened: as §1

[15] = system: MDA-MB-453; experiment: as above; conditions: 100 nM; incubation time: 72 h
Procedure, shortened: as §1

[16] = system: MDA-MB-468; experiment: as above; conditions: 10000 nM; incubation time: 72 h
Procedure, shortened: as §1

[17] = system: MFM-223; experiment: as above; conditions: 10000 nM; incubation time: 72 h
Procedure, shortened: as §1

[18] = system: SK-BR-3; experiment: as above; conditions: 10000 nM; incubation time: 72 h
Procedure, shortened: as §1

[19] = system: CAL-148; experiment: normalised viability (% of control), CellTiter-Blue; higher = more viable cells (about 100 = DMSO control); conditions: 10000 nM; incubation time: 72 h
Procedure: (§2)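 DSRT, CellTiter-Blue viability, 72 h incubation. Signal is normalised to DMSO and benzethonium chloride controls. Value is the normalised response at dose 9.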

[20] = system: CAL-51; experiment: as above; conditions: 10000 nM; incubation time: 72 h
Procedure: as §2

[21] = system: CAL-85-1; experiment: as above; conditions: 10000 nM; incubation time: 72 h
Procedure: as §2

[22] = system: DU-4475; experiment: as above; conditions: 10000 nM; incubation time: 72 h
Procedure: as §2

[23] = system: HDQ-P1; experiment: as above; conditions: 10000 nM; incubation time: 72 h
Procedure: as §2

[24] = system: MDA-MB-453; experiment: as above; conditions: 10000 nM; incubation time: 72 h
Procedure: as §2

[25] = system: BT-474; experiment: normalised viability (% of control), CellTiter-Blue; higher = more viable cells (100 = DMSO, 0 = benzethonium chloride kill control); conditions: 1 nM; incubation time: 72 h
Procedure, shortened: as §1

[26] = system: CAL-148; experiment: as above; conditions: 1 nM; incubation time: 72 h
Procedure, shortened: as §1

[27] = system: CAL-85-1; experiment: as above; conditions: 1 nM; incubation time: 72 h
Procedure, shortened: as §1

[28] = system: HCC1143; experiment: as above; conditions: 1 nM; incubation time: 72 h
Procedure, shortened: as §1

[29] = system: MDA-MB-231; experiment: as above; conditions: 1 nM; incubation time: 72 h
Procedure, shortened: as §1

[30] = system: MDA-MB-436; experiment: as above; conditions: 1 nM; incubation time: 72 h
Procedure, shortened: as §1

[31] = system: MDA-MB-453; experiment: as above; conditions: 1 nM; incubation time: 72 h
Procedure, shortened: as §1

| Compound | normalised viability [1] | normalised viability [2] | normalised viability [3] | normalised viability [4] | normalised viability [5] | normalised viability [6] | normalised viability [7] | normalised viability [8] | normalised viability [9] | normalised viability [10] | normalised viability [11] | normalised viability [12] | normalised viability [13] | normalised viability [14] | normalised viability [15] | normalised viability [16] | normalised viability [17] | normalised viability [18] | normalised viability [19] | normalised viability [20] | normalised viability [21] | normalised viability [22] | normalised viability [23] | normalised viability [24] | normalised viability [25] | normalised viability [26] | normalised viability [27] | normalised viability [28] | normalised viability [29] | normalised viability [30] | normalised viability [31] |
| --- | --- | --- | --- | --- | --- | --- | --- | --- | --- | --- | --- | --- | --- | --- | --- | --- | --- | --- | --- | --- | --- | --- | --- | --- | --- | --- | --- | --- | --- | --- | --- |
| CN(C)C[C@@H]1CCn2cc(c3ccccc32)C2=C(C(=O)NC2=O)c2cn(c3ccccc23)CCO1 [Ruboxistaurin] | 3.5% | 43.7% | 38.9% | 111% | 88.8% | 115% | 95.6% | 94% | 58.1% | 35.1% | 83.1% | 42.9% | 27.6% | 29.2% | 93% | 8.88% | 30.1% | 4% | 24.3% | 27.4% | 84.3% | 1.01% | 22.5% | 0.78% | 118% | 126% | 106% | 127% | 92.5% | 101% | 98.5% |
| CN1CCN(CCOc2cc(OC3CCOCC3)c3c(Nc4c(Cl)ccc5c4OCO5)ncnc3c2)CC1 [Saracatinib] | 42.4% | 47.4% | 61.1% | 85.3% | 99.1% | 98% | 98.9% | 46.2% | 83.7% | 116% | 111% | 69.7% | 60.6% | 72.1% | 105% | 57.8% | 77.1% | 39.7% | 62% | 38.4% | 23.5% | 133% | 21.9% | 35.6% | 93.9% | 89.8% | 88.7% | 80.9% | 85.5% | 122% | 105% |
| Cn1cncc1[C@@](N)(c1ccc(Cl)cc1)c1ccc2c(c1)c(-c1cccc(Cl)c1)cc(=O)n2C [Tipifarnib] | 45% | 30.1% | 32.7% | 45.6% | 63.4% | 76.8% | 54.9% | 59.7% | 51.7% | 32.3% | 70.7% | 39.3% | 48.8% | 54.9% | 73.6% | 26.4% | 29.7% | 23.8% | 26.7% | 20.4% | 47.2% | 15.7% | 49.6% | 19.9% | 92.1% | 102% | 81.1% | 85.6% | 98.8% | 98.5% | 94.7% |
